Results as given in patent publication US10202372B2, “Trisubstituted pyrido[2,3-D]pyrimidines, methods for preparing same and therapeutic uses thereof” (CENTRE NATIONAL DE LA RECHERCHE SCIENTIFIQUE (C.N.R.S), priority 2012, dated 2019).
Counter-ions that a name gives are not always drawn.

Experiments:
NCl = assay: Toxicity test on cells, NCl; assay type: cell-based; details: 48 hours of treatment, Hoechst nuclei staining
Procedure: (§1) The compounds according to the invention were also tested on the cell lines HuH7, CaCo-2, HCT116, PC3, NCl, HacaT and Fibroblasts.
(§2) Operating Procedure: The cells were cultivated according to the ECACC recommendations. The toxicity test of the compounds on these cells was conducted as follows: 4×10^3 cells/well were sown in 96 wells. 24 hours after sowing the cells, the cells were exposed to increased concentrations of the compounds (0.1 μM-0.3 μM-0.9 μM-2.7 μM-8.3 μM-25 μM). After 48 hours of treatment, the cells were washed in PBS and bound in a cold ethanol/acetic acid (90/5) mixture for 20 minutes. Next, the nuclei were coloured with […] (Sigma). The acquisition of images and the analysis was carried out by means of a reader Cellomics ArrayScan VTI/HCS (Thermo Scientific).

Fibroblasts = assay: Toxicity test on cells, Fibroblasts; assay type: cell-based; details: Fibroblast; 48 hours of treatment, Hoechst nuclei staining
Procedure: as §1, §2

PI3Kα = PI3Kα (Homo sapiens, UniProt P42336); assay: PI3Kα kinase activity, Adapta TR-FRET ADP detection; assay type: biochemical; details: purified p110α/p85α heterodimer, triplicate; read-out: Kinases IC50 PI3Kα
PI3Kα, sequence (P42336 whole entry): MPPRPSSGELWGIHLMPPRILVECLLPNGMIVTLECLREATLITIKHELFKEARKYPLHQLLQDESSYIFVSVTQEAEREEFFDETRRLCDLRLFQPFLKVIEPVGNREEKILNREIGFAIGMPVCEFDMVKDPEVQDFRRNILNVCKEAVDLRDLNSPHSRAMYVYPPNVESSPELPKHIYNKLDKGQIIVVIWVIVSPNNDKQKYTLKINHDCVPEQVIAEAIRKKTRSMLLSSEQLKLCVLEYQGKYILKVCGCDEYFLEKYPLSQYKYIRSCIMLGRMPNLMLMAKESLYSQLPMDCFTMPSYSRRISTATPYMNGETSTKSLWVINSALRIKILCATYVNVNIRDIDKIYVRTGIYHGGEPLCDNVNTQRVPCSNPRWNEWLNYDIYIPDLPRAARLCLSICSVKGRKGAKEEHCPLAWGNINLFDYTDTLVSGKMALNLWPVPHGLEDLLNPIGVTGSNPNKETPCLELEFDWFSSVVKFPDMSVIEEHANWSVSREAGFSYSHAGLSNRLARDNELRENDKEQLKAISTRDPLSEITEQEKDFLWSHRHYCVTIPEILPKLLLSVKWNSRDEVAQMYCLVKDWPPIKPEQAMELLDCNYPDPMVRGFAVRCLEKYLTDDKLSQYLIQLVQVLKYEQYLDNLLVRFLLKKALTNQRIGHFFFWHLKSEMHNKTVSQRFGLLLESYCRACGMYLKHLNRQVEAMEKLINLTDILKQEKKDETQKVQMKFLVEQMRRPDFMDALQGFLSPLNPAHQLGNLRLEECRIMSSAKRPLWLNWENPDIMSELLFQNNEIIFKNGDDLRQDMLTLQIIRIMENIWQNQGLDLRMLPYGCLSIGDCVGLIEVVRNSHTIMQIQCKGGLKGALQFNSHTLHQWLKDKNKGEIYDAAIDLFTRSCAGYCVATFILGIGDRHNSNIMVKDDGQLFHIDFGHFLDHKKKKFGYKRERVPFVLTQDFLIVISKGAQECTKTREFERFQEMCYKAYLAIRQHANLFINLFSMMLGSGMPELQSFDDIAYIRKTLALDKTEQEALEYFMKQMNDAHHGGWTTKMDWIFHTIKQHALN
PI3Kα, sequence (P27986 whole entry partner): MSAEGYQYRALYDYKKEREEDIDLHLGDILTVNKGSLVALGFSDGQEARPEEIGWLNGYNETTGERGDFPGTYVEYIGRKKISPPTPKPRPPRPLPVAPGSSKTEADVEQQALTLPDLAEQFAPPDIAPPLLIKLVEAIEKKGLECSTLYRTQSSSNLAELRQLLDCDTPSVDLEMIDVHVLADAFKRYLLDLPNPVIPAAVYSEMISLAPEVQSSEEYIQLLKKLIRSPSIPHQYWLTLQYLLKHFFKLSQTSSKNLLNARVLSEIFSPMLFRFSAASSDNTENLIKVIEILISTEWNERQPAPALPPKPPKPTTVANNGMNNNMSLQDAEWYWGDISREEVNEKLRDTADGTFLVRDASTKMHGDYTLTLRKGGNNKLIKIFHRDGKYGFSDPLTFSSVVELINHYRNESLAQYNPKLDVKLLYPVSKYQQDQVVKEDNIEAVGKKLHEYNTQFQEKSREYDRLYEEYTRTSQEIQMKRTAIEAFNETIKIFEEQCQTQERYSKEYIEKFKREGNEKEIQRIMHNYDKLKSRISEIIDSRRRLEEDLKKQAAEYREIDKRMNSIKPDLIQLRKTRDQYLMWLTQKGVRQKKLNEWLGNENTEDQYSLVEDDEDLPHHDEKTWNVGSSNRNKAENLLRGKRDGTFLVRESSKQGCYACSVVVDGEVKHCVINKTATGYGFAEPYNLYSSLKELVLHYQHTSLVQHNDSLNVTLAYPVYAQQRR
Procedure: (§3) The activity of the PI3Kα kinase was evaluated by using a purified heterodimer (reference: PV4788 from Invitrogen) consisting of the α catalytic p110 subunit (PIK3CA) and the α regulation p85 subunit (PIK3R1). The assay of the kinase with the kit Adapta™ (reference: PV5099 from Invitrogen) is an enzymatic test based on the detection of ADP, produced during the reaction, by the fluorescence technique TR-FRET. It took place in a 384-well plate and was able to be divided into two phases: an enzymatic reaction phase, and a phase for detecting the ADP level.
(§4) During the enzymatic reaction phase, the following components were mixed in 10 μL of a same well: 2.5 μL of each dilution in series of inhibitors taken up in DMSO and then diluted to 1/25 in the reaction buffer (250 mM HEPES pH 7.5, 500 mM NaCl, 0.15 CHAPS, 5 mM EGTA, 15 mM MgCl2 and 1 mM DTT, ref.: PV5101 from Invitrogen), 2.5 μL of a solution containing PI3K at the optimum concentration (concentration defined according to the optimization step described in the operating procedure of the kit) diluted in the same reaction buffer, and finally, 5 μL of a solution containing 20 μM ATP and 100 μM PIP2 diluted in the reaction buffer. For each inhibitor concentration, the reaction was conducted in three copies (triplicate). The reaction was then incubated for 60 min at room temperature without any stirring in darkness.
(§5) During the phase for detecting ADP, 5 μL of a detection solution containing an anti-ADP antibody labeled with europium (6 nM), a tracer of the Alexa Fluor® 647 type coupled with ADP (30 nM), and EDTA (30 mM, for stopping the kinase reaction) were diluted in the dilution buffer (reference: PV3574 from Invitrogen). After 30 min of incubation at room temperature with stirring (40 rpm) in darkness, the 384-well plates were read in a plate reader Victor V configured for HTRF (Perkin Elmer). The excitation was produced at 340 nm and emission was measured at 665 nm and 615 nm. The inhibition curve was then plotted according to the emission ratio at 665 nm/615 nm versus the inhibitor concentration.
(§6) In order to obtain a linear response of the signal, a titration curve ATP-ADP, corresponding to the conversion % of ATP into ADP, was achieved by varying both of these species while keeping [ADP]+[ATP]=10 μM. The emission ratio at 665 nm/615 nm resulting from this (Y) was plotted versus the conversion % of ATP into ADP (X). The data of this curve were formatted according to a model with three hyperbolic parameters from the following equation: Y=C+A*(1−(X/(B+X))).
(§7) The software package GraphPad™ Prism® thus allows calculation of the parameters A, B and C. A conversion % corresponds to an emission ratio 665 nm/615 nm, this percentage is calculated by using the following equation: Conversion %=B*(C+A−Ratio)/(Ratio−C)
(§8) The three parameters A, B and C having been defined by the preceding equation, the conversion % was therefore able to be plotted versus the inhibitor concentration. The amount of inhibitor required for causing a 50% variation in the % conversion of ATP into ADP corresponds to the IC50 value of the inhibitor.

mTOR = mTOR (Homo sapiens, UniProt P42345); assay: mTOR kinase activity, LANCE Ultra TR-FRET; assay type: biochemical; details: truncated mTOR protein, triplicate; read-out: Kinases IC50 mTOR
mTOR, sequence (P42345 1360-2549): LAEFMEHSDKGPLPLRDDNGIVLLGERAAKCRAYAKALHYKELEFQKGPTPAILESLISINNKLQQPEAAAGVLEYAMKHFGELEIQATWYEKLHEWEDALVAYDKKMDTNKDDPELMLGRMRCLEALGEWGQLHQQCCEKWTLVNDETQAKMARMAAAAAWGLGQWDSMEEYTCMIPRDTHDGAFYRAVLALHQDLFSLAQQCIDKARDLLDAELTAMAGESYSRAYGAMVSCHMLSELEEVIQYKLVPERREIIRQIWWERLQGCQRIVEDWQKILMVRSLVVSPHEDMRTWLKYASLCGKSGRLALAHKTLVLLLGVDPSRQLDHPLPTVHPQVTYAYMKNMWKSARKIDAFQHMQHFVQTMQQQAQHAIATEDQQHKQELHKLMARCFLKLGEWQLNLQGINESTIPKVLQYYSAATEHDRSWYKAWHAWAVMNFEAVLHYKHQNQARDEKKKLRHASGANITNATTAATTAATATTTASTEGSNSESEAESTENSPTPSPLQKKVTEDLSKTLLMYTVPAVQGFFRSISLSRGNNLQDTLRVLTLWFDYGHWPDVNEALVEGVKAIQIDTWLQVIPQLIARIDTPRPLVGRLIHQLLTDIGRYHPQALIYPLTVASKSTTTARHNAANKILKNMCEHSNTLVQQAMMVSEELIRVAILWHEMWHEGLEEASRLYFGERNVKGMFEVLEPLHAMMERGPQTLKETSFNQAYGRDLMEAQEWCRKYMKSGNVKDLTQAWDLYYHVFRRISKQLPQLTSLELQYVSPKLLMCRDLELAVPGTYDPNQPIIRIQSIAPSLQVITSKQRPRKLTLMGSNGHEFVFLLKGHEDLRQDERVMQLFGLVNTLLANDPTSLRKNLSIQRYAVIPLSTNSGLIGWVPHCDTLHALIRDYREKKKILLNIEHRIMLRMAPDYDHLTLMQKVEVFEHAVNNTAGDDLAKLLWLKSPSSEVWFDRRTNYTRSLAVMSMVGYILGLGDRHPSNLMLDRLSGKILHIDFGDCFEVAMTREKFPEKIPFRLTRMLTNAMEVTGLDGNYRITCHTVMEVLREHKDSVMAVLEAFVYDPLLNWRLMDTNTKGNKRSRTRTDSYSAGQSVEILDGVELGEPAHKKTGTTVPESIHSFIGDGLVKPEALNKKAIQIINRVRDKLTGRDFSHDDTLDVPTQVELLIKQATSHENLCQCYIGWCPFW
Procedure: The activity of the mTOR kinase was evaluated by using a purified truncated protein of the amino acids 1-1359 (reference: PV4753 from Invitrogen). The assay of the activity of the enzyme was carried out with the kit LANCE® Ultra which is an enzymatic test based on the detection of a phosphorylated peptide produced during the reaction, by using the fluorescence technique TR-FRET. It took place in a 384-well plate and was able to be divided into two phases: an enzymatic reaction phase and a phase for detecting the phosphorylated peptide.
During the enzymatic reaction phase, the following components were mixed in 10 μL of a same well: 5 μL of each dilution in series of inhibitors taken up in DMSO and then diluted to 1/25 in the reaction buffer (50 mM HEPES pH 7.5, 0.1% Tween-20, 1 mM EGTA, 10 mM MnCl2, 3 mM MgCl2 and 2 mM of DTT), 2.5 μL of a solution containing mTOR at the optimum concentration (concentration defined according to the optimization step described in the operating procedure of the kit) diluted in the same reaction buffer, and finally 2.5 μL of a solution containing 40 μM of ATP and 200 μM non-phosphorylated peptide diluted in the reaction buffer. For each inhibitor concentration, the reaction was conducted in three copies (triplicate). The reaction was then incubated for 120 min at room temperature without any stirring in darkness.
During the phase for detecting the phosphorylated peptide, 5 μL of an EDTA solution (32 mM) diluted in the dilution buffer (ref.: CR97-100 from Perkin Elmer) were injected into each well. After 5 min of incubation with stirring, 5 μL of a phosphorylated anti-peptide antibody solution labeled with europium (8 nM) and diluted in the same dilution buffer was added into each well. After 60 min of incubation at room temperature with stirring (40 rpm) in darkness, the 384-well plates were read in a plate reader Victor V configured for HTRF (Perkin Elmer). […] The inhibition curve was then plotted according to the fluorescence intensity value at 665 nm versus the inhibitor concentration.
The amount of inhibitor required for causing a 50% variation in the intensity of the signal corresponds to the IC50 value of the inhibitor.

MDA = assay: Toxicity test on cells, MDA; assay type: cell-based; details: 48 hours of treatment, Hoechst nuclei staining
Procedure: [The procedure below names another cell line; the source lists this cell line under the same test.] as §1, §2

HCT116 = assay: Toxicity test on cells, HCT116; assay type: cell-based; details: Homo sapiens, HCT-116; 48 hours of treatment, Hoechst nuclei staining
Procedure: as §1, §2

CaCo2 = assay: Toxicity test on cells, CaCo2; assay type: cell-based; details: Homo sapiens, Caco-2; 48 hours of treatment, Hoechst nuclei staining
Procedure: as §1, §2

PI3Kδ = PI3Kδ (Homo sapiens, UniProt O00329); assay: PI3Kδ kinase activity, Adapta TR-FRET ADP detection; assay type: biochemical; details: purified p110δ/p85α heterodimer; read-out: Kinases IC50 PI3Kδ
Procedure: as §3, §4, §5, §6, §7, §8
(§9) The activity of the kinase PI3Kγγ (PV4786 from Invitrogen) was evaluated on the p110γγ catalytic subunit (PI3KCG) and that of the kinase PI3Kδδ on the purified heterodimer (PV5273) respectively consisting of the δδ catalytic p110 subunit (PIK3CD) and the α regulation p85 subunit (PIK3R1) by following the same procedure.

PC3 = assay: Toxicity test on cells, PC3; assay type: cell-based; details: Homo sapiens, PC-3; 48 hours of treatment, Hoechst nuclei staining
Procedure: as §1, §2

HUH7 = assay: Toxicity test on cells, HUH7; assay type: cell-based; details: Homo sapiens, Huh-7; 48 hours of treatment, Hoechst nuclei staining
Procedure: as §1, §2

PI3Kγ = PI3Kγ (Homo sapiens, UniProt P48736); assay: PI3Kγ kinase activity, Adapta TR-FRET ADP detection; assay type: biochemical; details: p110γ catalytic subunit; read-out: Kinases IC50 PI3Kγ
PI3Kγ, sequence (P48736 whole entry): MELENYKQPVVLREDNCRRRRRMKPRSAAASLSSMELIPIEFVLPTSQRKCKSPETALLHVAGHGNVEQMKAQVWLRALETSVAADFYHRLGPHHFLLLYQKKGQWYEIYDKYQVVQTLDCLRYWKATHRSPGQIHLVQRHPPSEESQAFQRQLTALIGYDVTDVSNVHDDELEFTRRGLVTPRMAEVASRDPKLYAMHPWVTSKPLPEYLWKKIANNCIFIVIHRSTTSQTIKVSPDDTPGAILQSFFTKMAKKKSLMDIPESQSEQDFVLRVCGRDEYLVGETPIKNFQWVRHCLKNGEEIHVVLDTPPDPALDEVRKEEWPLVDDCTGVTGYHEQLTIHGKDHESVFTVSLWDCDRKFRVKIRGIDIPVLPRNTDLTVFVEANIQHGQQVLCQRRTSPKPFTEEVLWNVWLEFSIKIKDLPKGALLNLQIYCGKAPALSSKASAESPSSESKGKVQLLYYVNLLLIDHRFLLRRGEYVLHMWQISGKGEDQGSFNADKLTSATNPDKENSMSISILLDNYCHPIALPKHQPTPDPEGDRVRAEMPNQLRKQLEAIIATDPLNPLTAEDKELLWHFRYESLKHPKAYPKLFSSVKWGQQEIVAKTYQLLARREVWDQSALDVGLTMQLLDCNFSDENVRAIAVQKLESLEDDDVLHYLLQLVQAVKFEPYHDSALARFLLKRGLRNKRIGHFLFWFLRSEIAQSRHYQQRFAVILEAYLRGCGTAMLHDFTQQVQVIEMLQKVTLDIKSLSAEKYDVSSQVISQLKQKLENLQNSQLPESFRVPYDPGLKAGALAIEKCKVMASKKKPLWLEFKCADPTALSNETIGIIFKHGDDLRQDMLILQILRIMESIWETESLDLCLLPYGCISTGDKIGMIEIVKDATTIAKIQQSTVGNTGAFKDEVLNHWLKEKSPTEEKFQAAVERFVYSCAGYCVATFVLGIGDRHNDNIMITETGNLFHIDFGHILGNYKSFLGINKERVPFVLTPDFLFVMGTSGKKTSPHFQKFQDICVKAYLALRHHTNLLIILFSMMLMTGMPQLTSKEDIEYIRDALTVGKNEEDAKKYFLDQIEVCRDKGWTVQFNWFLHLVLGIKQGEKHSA
Procedure: as §3, §4, §5, §6, §7, §8, §9

HacaT = assay: Toxicity test on cells, HacaT; assay type: cell-based; details: Homo sapiens, 48 hours of treatment, Hoechst nuclei staining
Procedure: as §1, §2

Row | Structure (SMILES) | IC50 (NCl) [µM] | IC50 (Fibroblasts) [µM] | IC50 (PI3Kα) [µM] | IC50 (mTOR) [µM] | IC50 (MDA) [µM] | IC50 (HCT116) [µM] | IC50 (CaCo2) [µM] | IC50 (PI3Kδ) [µM] | IC50 (PC3) [µM] | IC50 (HUH7) [µM] | IC50 (PI3Kγ) [µM] | IC50 (HacaT) [µM]
1 | CN1CCN(Cc2cnc3c(N4CCOCC4)nc(-c4cccc(O)c4)nc3c2)CC1 [Compound 30, 3-(7-((4-methylpiperazin-1-yl)methyl)-4-morpholinopyrido[3,2-d]pyrimidin-2-yl)phenol hydrochloride] | 15 | > 25 | 0.391 | 2.2 | 20 | 10 | 2 | 0.157 | 7 | 5 | 0.244 | 8
2 | Oc1cccc(-c2nc(N3CCOCC3)c3ncc(Cl)cc3n2)c1 [Compound 6, 3-(7-Chloro-4-morpholinopyrido[3,2-d]pyrimidin-2-yl)phenol] | > 25 | > 25 | 0.012 | 0.183 | > 25 | 9 | 8 | 0.01 | > 25 | 0.8 | 0.273 | 4
3 | Oc1cccc(-c2nc(N3CCOCC3)nc3cc(Cl)cnc23)c1 [Compound 51, 3-(7-chloro-2-morpholinopyrido[3,2-d]pyrimidin-4-yl)phenol] | > 25 | > 25 | 0.546 | 5.2 | > 25 | > 25 | 20 | 3.9 | > 25 | > 25 | 5 | > 25
4 | Oc1cccc(-c2nc(N3CCOCC3)c3ncc(CNC4CC4)cc3n2)c1 [Compound 27, 3-(7-((cyclopropylamino)methyl)-4-morpholinopyrido[3,2-d]pyrimidin-2-yl)phenolhydrochloride] | > 25 | > 25 | 0.109 | 0.249 | > 25 | 5 | 3 | 0.011 | 2 | > 25 | 0.428 | > 25
5 | Oc1cccc(-c2nc(N3CCOCC3)c3ncc(CNC4CCCCC4)cc3n2)c1 [Compound 28, 3-(7-((cyclohexylamino)methyl)-4-morpholinopyrido[3,2-d]pyrimidin-2-yl)phenol hydrochloride] | 25 | > 25 | 0.358 | 1.2 | > 25 | 20 | 10 | 0.213 | 25 | 15 | 0.769 | 20
6 | Oc1cccc(-c2nc(N3CCOCC3)c3ncc(CN4CCOCC4)cc3n2)c1 [Compound 29, 3-(4-morpholino-7-(morpholinomethyl)pyrido[3,2-d]pyrimidin-2-yl) phenol hydrochloride] | > 25 | > 25 | 0.043 | 0.286 | > 25 | 5 | 3 | 0.041 | 2 | > 25 | 1.3 | 8
7 | COCc1cn(Cc2cnc3c(N4CCOCC4)nc(-c4ccc(NC(=O)Nc5ccc(CO)cc5)cc4)nc3c2)nn1 [Compound 81, 1-[4-(hydroxymethyl)phenyl]-3-[4-(7-{[4-(methoxymethyl)-1H-1,2,3-triazol-1-yl]methyl}-4-(morpholin-4-yl)pyrido[3,2-d]pyrimidin-2-yl)phenyl]urea] | 0.3 | > 25 | 0.003 |  | 0.5 | 0.1 | 2 |  | 0.1 | 7 |  | 0.3
8 | [N-]=[N+]=NCc1cnc2c(N3CCOCC3)nc(-c3cccc(O)c3)nc2c1 [Compound 39, 3-(7-(azidomethyl)-4-morpholinopyrido[3,2-d]pyrimidin-2-yl)phenol] | 3 | > 25 | 0.01 | 0.055 | > 25 | 5 | 2 | 0.022 | 3 | 4 | 0.043 | 4
9 | Oc1cccc(-c2nc(N3CCOCC3)c3ncc(CN4CCN(C5CCCCC5)CC4)cc3n2)c1 [Compound 56, 3-{7-[(4-cyclohexylpiperazin-1-yl)methyl]-4-(morpholin-4-yl)pyrido[3,2-d]pyrimidin-2yl}phenol] | 11 | 10 | 0.011 |  | 12 | 7 | 6 |  | 8 | 6 |  | 8
